# Source: patent US20200397796A1, “METHODS OF TREATMENT OF CANCER COMPRISING CHK1 INHIBITORS” (SIERRA ONCOLOGY, INC., priority 2018, published 2020)
# Experiments:
# [1] = Phase 1 clinical trial, SRA737 in combination with gemcitabine dose escalation; format: in vivo; conditions: human, plasma, oral, 20 mg, Day −7, mean, n = 8-10
# [2] = Phase 1 clinical trial, SRA737 monotherapy dose escalation; format: in vivo, human; conditions: for AUC(0-t): AUC0-24
# Description: A Phase 1 clinical trial was conducted in ‘all comers,’ i.e. no genetic selection was performed, to establish safety, tolerability and pharmacokinetics (“Dose Escalation Phase”). Cohorts consisting initially of a single subject received escalating doses of SRA737, starting in Cohort 1 with 20 mg/day administered orally on a continuous daily dosing schedule in 28 day cycles. the dose was escalated until the maximum tolerated dose (MTD) was identified.
# In the Dose Escalation Phase, 18 subjects received SRA737 in 9 dose level cohorts, from 20 to 1300 mg QD; median treatment duration 62.5 days (range 1 to 226). […] Two of 3 subjects experienced DLTs at the 1300 mg once daily dose, each being an inability to receive 75% of the planned SRA737 dose due to GI intolerability, with the individual GI effects being low grade. […] A cohort receiving 500 mg twice daily was added to determine if a twice daily dosing schedule can improve GI tolerability, given the half-life of SRA737 is approximately 10 hours. One of 6 subjects experienced DLTs in the 500 mg twice daily cohort; this was an inability to receive 75% of the planned SRA737 dose due to grade 4 thrombocytopenia with grade 3 neutropenia and anemia.
# Cmin was calculated at 1000 mg QD (411 ng/mL) and exceeded that determined in preclinical models to be effective. Doses≥300 mg QD also exceeded the preclinical models to be effective.
# LL/2 (lung cancer) = assay: In vivo efficacy, LL/2 syngeneic model; design: species or system mouse; conditions: data not shown
# Description: A program of in vivo efficacy studies was performed to assess the activity of SRA737 in combination with genotoxic chemotherapy and targeted agents, and as monotherapy.
# One of these models also carried a MYCN amplification. A fourth HGSOC PDX model with partial resistance to PARPi was also sensitive to high dose SRA737 monotherapy.
# Single dose PK, monkey = format: in vivo
# Description: (§1) The PK of SRA737 have been determined in the mouse, rat, dog and monkey following oral and IV administration (Table 3). […] An acceptable terminal elimination t1/2 was also observed in each species. […] The plasma protein binding of SRA737 at 1 and 10 μM was examined in mouse, minipig, monkey and human plasma using ultracentrifugation and in dog plasma (10 μM) using rapid equilibrium dialysis.
# [3] = Plasma protein binding, ultracentrifugation, monkey; format: in vitro ADME; conditions: for Percentage Bound / Percentage Free: Monkey plasma
# Description: as §1
# CYP 3A4 = CYP 3A4 (Homo sapiens, UniProt P08684); assay: CYP inhibition, 3A4; format: in vitro ADME; conditions: highest concentration investigated
# [4] = Plasma protein binding, ultracentrifugation, human; format: in vitro ADME; conditions: for Percentage Bound / Percentage Free: Human plasma
# Description: as §1
# minipig hepatocytes = assay: Stability in cryopreserved hepatocytes, minipig; format: in vitro ADME; conditions: 10 μM, after 4 hours of incubation
# Description: The formation of SRA737-related metabolites was determined in cryopreserved hepatocytes from human, mouse, rat, dog, minipig and monkey samples after incubation with SRA737 at a nominal concentration of 10 μM for up to 4 hours. […] In the human hepatocyte preparation, approximately 67% of the parent remained after 4 hours of incubation compared to 75% and 7% in the rat and minipig preparations, respectively. Eight human SRA737 metabolites were observed. All SRA737 metabolites formed by human hepatocytes were also formed by monkey hepatocytes. Six metabolites were present at equal or greater abundance in the monkey.
# [5] = in vivo, Monkey IV 1 mg/kg single dose
# [6] = in vivo, Monkey oral 2 mg/kg single dose
# [7] = in vivo, Monkey oral 10 mg/kg single dose
# Chain of CYP 3A4 (P08684 whole entry): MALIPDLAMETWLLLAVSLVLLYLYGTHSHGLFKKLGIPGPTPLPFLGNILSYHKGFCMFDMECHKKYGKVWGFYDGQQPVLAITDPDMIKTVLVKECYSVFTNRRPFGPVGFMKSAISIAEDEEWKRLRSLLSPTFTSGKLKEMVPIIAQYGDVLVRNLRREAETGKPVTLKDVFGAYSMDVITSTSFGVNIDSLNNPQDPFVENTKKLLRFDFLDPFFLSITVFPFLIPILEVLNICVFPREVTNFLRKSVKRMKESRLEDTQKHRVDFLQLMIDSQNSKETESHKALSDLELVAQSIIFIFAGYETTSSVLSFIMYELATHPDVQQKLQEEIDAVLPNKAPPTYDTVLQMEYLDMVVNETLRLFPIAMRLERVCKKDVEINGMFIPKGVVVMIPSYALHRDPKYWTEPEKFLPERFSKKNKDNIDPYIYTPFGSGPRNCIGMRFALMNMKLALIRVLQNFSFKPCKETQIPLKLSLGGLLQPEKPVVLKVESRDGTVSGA
smiles,measurement,setting,value
"N#Cc1cnc(Nc2cc(NCC3CNCCO3)c(C(F)(F)F)cn2)cn1 (centres unmarked) [SRA737, 5-[[4-[[morpholin-2-yl]methylamino]-5-(trifluoromethyl)-2-pyridyl]amino]pyrazine-2-carbonitrile]",Cmax,[1],31.3 ng/mL
same,Tmax,[1],1.9 h
same,maximum tolerated dose (MTD),[2]; BID,500 mg
same,maximum tolerated dose (MTD),"[2]; QD, continuous daily oral dosing",1000 mg
same,dose-limiting toxicities (DLTs),"[2]; human, in vivo",without any dose-limiting toxicities
same,doses that exceeded the level determined in preclinical models to be effective,"[2]; human, in vivo",≥ 300 mg
same,Cmax,"[2]; human, in vivo, 20 mg",29.0 ng/mL
same,Cmax,"[2]; human, in vivo, 20 mg, Cmax",43 ng/mL
same,half-life,"[2]; human, in vivo, 20 mg, T1/2",17.6 h
same,AUC0-24,"[2]; human, in vivo, 40 mg","1,006 ng · h/mL"
same,Cmax,"[2]; human, in vivo, 40 mg",75.9 ng/mL
same,T1/2,"[2]; human, in vivo, 40 mg",16.8 h
same,Tmax,"[2]; human, in vivo, 40 mg",2.0 h
same,AUC(0-t),"[2]; human, in vivo, 40 mg",809 ng·h/mL
same,Cmax,"[2]; human, in vivo, 40 mg, Cmax",95 ng/mL
same,half-life,"[2]; human, in vivo, 40 mg, T1/2",9.85 h
same,Tmax,"[2]; human, in vivo, 40 mg, Tmax",1 h
same,AUC0-24,"[2]; human, in vivo, 80 mg","1,064 ng · h/mL"
same,Cmax,"[2]; human, in vivo, 80 mg",81.4 ng/mL
same,T1/2,"[2]; human, in vivo, 80 mg",15.6 h
same,Tmax,"[2]; human, in vivo, 80 mg",2.0 h
same,AUC(0-t),"[2]; human, in vivo, 80 mg",691 ng·h/mL
same,Cmax,"[2]; human, in vivo, 80 mg, Cmax",68.9 ng/mL
same,half-life,"[2]; human, in vivo, 80 mg, T1/2",9.27 h
same,Tmax,"[2]; human, in vivo, 80 mg, Tmax",4 h
same,AUC0-24,"[2]; human, in vivo, 160 mg","2,515 ng · h/mL"
same,Cmax,"[2]; human, in vivo, 160 mg",217 ng/mL
same,T1/2,"[2]; human, in vivo, 160 mg",19.8 h
same,Tmax,"[2]; human, in vivo, 160 mg",2.0 h
same,AUC(0-t),"[2]; human, in vivo, 160 mg",1620 ng·h/mL
same,Cmax,"[2]; human, in vivo, 160 mg, Cmax",178 ng/mL
same,half-life,"[2]; human, in vivo, 160 mg, T1/2",13.8 h
same,Tmax,"[2]; human, in vivo, 160 mg, Tmax",4 h
same,AUC0-24,"[2]; human, in vivo, 300 mg","2,362 ng · h/mL"
same,T1/2,"[2]; human, in vivo, 300 mg",15.4 h
same,Tmax,"[2]; human, in vivo, 300 mg",6.0 h
same,AUC(0-t),"[2]; human, in vivo, 300 mg",3150 ng·h/mL
same,half-life,"[2]; human, in vivo, 300 mg, T1/2",8.59 h
same,Tmax,"[2]; human, in vivo, 300 mg, Tmax",4 h
same,AUC0-24,"[2]; human, in vivo, 600 mg","12,850 ng · h/mL"
same,Cmax,"[2]; human, in vivo, 600 mg","1,381 ng/mL"
same,T1/2,"[2]; human, in vivo, 600 mg",10.4 h
same,Tmax,"[2]; human, in vivo, 600 mg",2.9 h
same,AUC(0-t),"[2]; human, in vivo, 600 mg",8870 ng·h/mL
same,Cmax,"[2]; human, in vivo, 600 mg, Cmax",998 ng/mL
same,half-life,"[2]; human, in vivo, 600 mg, T1/2",12.9 h
same,Tmax,"[2]; human, in vivo, 600 mg, Tmax",1.8 h
same,AUC0-24,"[2]; human, in vivo, 800 mg","25,423 ng · h/mL"
same,Cmax,"[2]; human, in vivo, 800 mg","2,573 ng/mL"
same,T1/2,"[2]; human, in vivo, 800 mg",10.0 h
same,Tmax,"[2]; human, in vivo, 800 mg",2.5 h
same,AUC(0-t),"[2]; human, in vivo, 800 mg",18900 ng·h/mL
same,Cmax,"[2]; human, in vivo, 800 mg, Cmax",1980 ng/mL
same,half-life,"[2]; human, in vivo, 800 mg, T1/2",10.3 h
same,Tmax,"[2]; human, in vivo, 800 mg, Tmax",3.3 h
same,T1/2,"[2]; human, in vivo, 1000 mg",9.38 h
same,Tmax,"[2]; human, in vivo, 1000 mg",3.1 h
same,AUC(0-t),"[2]; human, in vivo, 1000 mg",26800 ng·h/mL
same,Cmax,"[2]; human, in vivo, 1000 mg, Cmax",2390 ng/mL
same,half-life,"[2]; human, in vivo, 1000 mg, T1/2",11 h
same,Tmax,"[2]; human, in vivo, 1000 mg, Tmax",3.3 h
same,AUC(0-t),"[2]; human, in vivo, 1300 mg",29800 ng·h/mL
same,Cmax,"[2]; human, in vivo, 1300 mg, Cmax",3230 ng/mL
same,half-life,"[2]; human, in vivo, 1300 mg, T1/2",11.8 h
same,Tmax,"[2]; human, in vivo, 1300 mg, Tmax",2.7 h
same,half-life,"[2]; human, in vivo, half-life",~10 h
same,single agent efficacy,LL/2 (lung cancer),single agent efficacy
same,Foral,"Single dose PK, monkey; Monkey oral 2 mg/kg single dose",90%
same,Foral,"Single dose PK, monkey; Monkey oral 10 mg/kg single dose",104%
same,AUC(0-t),"Single dose PK, monkey; [5]",1520 ng·h/mL
same,half-life,"Single dose PK, monkey; [5]",5.3 h
same,AUC(0-t),"Single dose PK, monkey; [6]",2730 ng·h/mL
same,Cmax,"Single dose PK, monkey; [6]",500 ng/mL
same,Tmax,"Single dose PK, monkey; [6]",1 to 2 h
same,half-life,"Single dose PK, monkey; [6]",5 h
same,AUC(0-t),"Single dose PK, monkey; [7]",15800 ng·h/mL
same,Cmax,"Single dose PK, monkey; [7]",2640 ng/mL
same,Tmax,"Single dose PK, monkey; [7]",2 to 4 h
same,half-life,"Single dose PK, monkey; [7]",5.1 h
same,bioavailability,"Single dose PK, monkey; in vivo, monkey, oral 2 and 10 mg/kg, read-out: absolute oral bioavailability (% F)",90 to 104%
same,Percentage Bound,[3]; 1 μM,88.8%
same,Percentage Free,[3]; 1 μM,11.2%
same,Percentage Bound,[3]; 10 μM,85.8%
same,Percentage Free,[3]; 10 μM,14.2%
same,fraction unbound,"[3]; plasma, monkey, summary of 1 and 10 μM",0.13
same,IC50,CYP 3A4,10 to 50 µM
same,Percentage Bound,[4]; 1 μM,87.7%
same,Percentage Free,[4]; 1 μM,12.4%
same,Percentage Bound,[4]; 10 μM,87.2%
same,Percentage Free,[4]; 10 μM,12.8%
same,fraction unbound,"[4]; human, plasma, humans, summary of 1 and 10 μM",~0.13
same,parent remained,minipig hepatocytes,7%
